In the supplement of paper PMC10307832:

Experiments:
Test in all cases: relative viability (nuclei count vs DMSO), 5 days (fraction); higher = more cells survive
AGI-6780 + Palbociclib = compound: O=C(Nc1cccc(C(F)(F)F)c1)Nc1cc(S(=O)(=O)NC2CC2)ccc1-c1ccsc1 [AGI-6780] + CC(=O)c1c(C)c2cnc(Nc3ccc(N4CCNCC4)cn3)nc2n(C2CCCC2)c1=O [Palbociclib] (partner 0.5 µM)
How it was run: (§1)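 For relative viability, nuclei counts in treated wells were divided by those in vehicle wells. Lung cancer cell lines had been pin-tool dosed in 1536-well plates the day after seeding and cultured for 5 days, then fixed and stained in one step (final 0.05% Triton X-100, 1% formaldehyde, 1 ug/ml Hoechst) and imaged at 4×. Doses were one drug alone or a fixed anchor-drug dose plus five library-drug doses (not always all listed) in √10 steps, and values are duplicate-plate medians.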

AGI-6780 + Pictilisib = compound: O=C(Nc1cccc(C(F)(F)F)c1)Nc1cc(S(=O)(=O)NC2CC2)ccc1-c1ccsc1 [AGI-6780] + CS(=O)(=O)N1CCN(Cc2cc3nc(-c4cccc5[nH]ncc45)nc(N4CCOCC4)c3s2)CC1 [Pictilisib] (partner 1 µM)
How it was run: as §1

AGI-6780 + Phenformin = compound: O=C(Nc1cccc(C(F)(F)F)c1)Nc1cc(S(=O)(=O)NC2CC2)ccc1-c1ccsc1 [AGI-6780] + N=C(N)NC(=N)NCCc1ccccc1 [Phenformin] (partner 250 µM)
How it was run: as §1

AGI-6780 + Decitabine = compound: O=C(Nc1cccc(C(F)(F)F)c1)Nc1cc(S(=O)(=O)NC2CC2)ccc1-c1ccsc1 [AGI-6780] + Nc1ncn([C@H]2C[C@H](O)[C@@H](CO)O2)c(=O)n1 [Decitabine] (partner 2 µM)
How it was run: as §1

| Cell Line | relative viability (AGI-6780 + Palbociclib; first compound 0.08 µM) | relative viability (AGI-6780 + Palbociclib; first compound 0.253 µM) | relative viability (AGI-6780 + Palbociclib; first compound 0.8 µM) | relative viability (AGI-6780 + Palbociclib; first compound 2.53 µM) | relative viability (AGI-6780 + Palbociclib; first compound 8 µM) | relative viability (AGI-6780 + Pictilisib; first compound 0.08 µM) | relative viability (AGI-6780 + Pictilisib; first compound 0.253 µM) | relative viability (AGI-6780 + Pictilisib; first compound 0.8 µM) | relative viability (AGI-6780 + Pictilisib; first compound 2.53 µM) | relative viability (AGI-6780 + Pictilisib; first compound 8 µM) | relative viability (AGI-6780 + Phenformin; first compound 0.08 µM) | relative viability (AGI-6780 + Phenformin; first compound 0.253 µM) | relative viability (AGI-6780 + Phenformin; first compound 0.8 µM) | relative viability (AGI-6780 + Phenformin; first compound 2.53 µM) | relative viability (AGI-6780 + Phenformin; first compound 8 µM) | relative viability (AGI-6780 + Decitabine; first compound 0.08 µM) | relative viability (AGI-6780 + Decitabine; first compound 0.253 µM) | relative viability (AGI-6780 + Decitabine; first compound 0.8 µM) | relative viability (AGI-6780 + Decitabine; first compound 2.53 µM) | relative viability (AGI-6780 + Decitabine; first compound 8 µM) |
| --- | --- | --- | --- | --- | --- | --- | --- | --- | --- | --- | --- | --- | --- | --- | --- | --- | --- | --- | --- | --- |
| NCI-H2126 | 0.38 | 0.357 | 0.36 | 0.391 | 0.341 | 0.484 | 0.573 | 0.496 | 0.44 | 0.493 | 0.543 | 0.568 | 0.539 | 0.526 | 0.539 | 0.577 | 0.615 | 0.562 | 0.501 | 0.582 |
| NCI-H23 | 0.437 | 0.528 | 0.457 | 0.394 | 0.541 | 0.614 | 0.571 | 0.624 | 0.437 | 0.609 | 0.822 | 0.747 | 0.766 | 0.719 | 0.784 | 0.3 | 0.327 | 0.285 | 0.294 | 0.313 |
| PC-14 | 0.533 | 0.538 | 0.568 | 0.553 | 0.546 | 0.927 | 0.681 | 0.893 | 0.55 | 0.857 | 0.464 | 0.665 | 0.576 | 0.581 | 0.695 | 0.22 | 0.226 | 0.295 | 0.217 | 0.198 |
| NCI-H727 | 0.669 | 0.671 | 0.605 | 0.56 | 0.645 | 0.516 | 0.545 | 0.38 | 0.227 | 0.276 | 0.62 | 0.536 | 0.687 | 0.563 | 0.698 | 0.939 | 0.95 | 0.857 | 0.951 | 0.897 |
| NCI-H647 | 0.416 | 0.36 | 0.48 | 0.332 | 0.422 | 0.428 | 0.452 | 0.421 | 0.347 | 0.342 | 0.409 | 0.609 | 0.729 | 0.408 | 0.744 | 0.438 | 0.478 | 0.411 | 0.297 | 0.401 |
| EKVX | 0.411 | 0.368 | 0.368 | 0.352 | 0.406 | 0.445 | 0.437 | 0.495 | 0.395 | 0.495 | 0.23 | 0.245 | 0.252 | 0.25 | 0.251 | 0.347 | 0.343 | 0.363 | 0.324 | 0.432 |
| NCI-H838 | 0.252 | 0.267 | 0.221 | 0.218 | 0.224 | 0.473 | 0.479 | 0.469 | 0.447 | 0.48 | 0.644 | 0.637 | 0.643 | 0.516 | 0.631 | 0.445 | 0.495 | 0.479 | 0.506 | 0.47 |
| NCI-H1355 | 0.432 | 0.409 | 0.408 | 0.354 | 0.342 | 0.492 | 0.503 | 0.5 | 0.326 | 0.437 | 0.485 | 0.451 | 0.484 | 0.393 | 0.448 | 0.353 | 0.419 | 0.357 | 0.34 | 0.355 |
| ChaGo-K-1 | 0.951 | 0.968 | 0.921 | 0.921 | 0.898 | 0.593 | 0.809 | 0.938 | 0.552 | 0.704 | 0.494 | 0.562 | 0.503 | 0.452 | 0.543 | 0.507 | 0.534 | 0.512 | 0.455 | 0.425 |
| LK-2 | 0.671 | 0.643 | 0.823 | – | 0.679 | 0.413 | 0.461 | 0.601 | – | 0.505 | 0.598 | 0.556 | 0.648 | – | 0.495 | 0.282 | 0.402 | 0.322 | – | 0.477 |
| NCI-H2009 | 0.198 | 0.158 | 0.262 | 0.194 | 0.236 | 0.731 | 0.884 | 0.911 | 0.737 | 0.867 | 0.432 | 0.426 | 0.496 | 0.518 | 0.47 | 0.396 | 0.365 | 0.428 | 0.322 | 0.382 |
| NCI-H1563 | – | – | – | – | – | 0.621 | 0.629 | 0.628 | 0.614 | 0.519 | 0.671 | 0.666 | 0.66 | 0.643 | 0.672 | – | – | – | – | – |
| NCI-H1648 | 0.242 | 0.232 | 0.335 | 0.26 | 0.25 | – | – | – | – | – | – | – | – | – | – | 0.551 | 0.418 | 0.506 | 0.459 | 0.627 |
| Calu-6 | – | – | – | – | – | 0.996 | 0.891 | 0.929 | 0.908 | 0.937 | – | – | – | – | – | – | – | – | – | – |
| SW 900 | 0.629 | 0.527 | 0.496 | 0.566 | 0.552 | – | – | – | – | – | 0.547 | 0.737 | 0.673 | 0.597 | 0.809 | 0.454 | 0.454 | 0.386 | 0.413 | 0.445 |
| NCI-H2228 | 0.726 | 0.961 | 0.631 | 0.667 | 0.766 | 0.378 | 0.532 | 0.358 | 0.133 | 0.386 | 0.341 | 0.278 | 0.31 | 0.347 | 0.393 | – | – | – | – | – |
| NCI-H1299 | – | – | – | – | – | 0.781 | 0.733 | 0.639 | 0.765 | 0.742 | – | – | – | – | – | – | – | – | – | – |
| IA-LM | – | – | – | – | – | 0.452 | 0.38 | 0.39 | 0.301 | 0.476 | – | – | – | – | – | – | – | – | – | – |
| NCI-H1703 | – | – | – | – | – | 0.336 | 0.197 | 0.259 | 0.223 | 0.248 | – | – | – | – | – | – | – | – | – | – |
| NCI-H596 | – | – | – | – | – | 0.419 | 0.399 | 0.376 | 0.382 | 0.476 | 0.739 | 0.876 | 0.758 | – | 0.752 | 1.65 | 0.981 | 0.991 | 0.73 | 0.924 |
| NCI-H522 | 0.97 | 0.972 | 0.968 | – | 0.86 | – | – | – | – | – | 0.706 | 0.659 | 0.633 | 0.616 | 0.627 | 0.612 | 0.583 | 0.722 | – | 0.588 |
| CAL-12T | 0.407 | 0.465 | 0.651 | 0.46 | 0.367 | – | 0.575 | 0.531 | 0.717 | 0.644 | 0.61 | 0.579 | 0.626 | 0.632 | 0.566 | – | – | – | – | – |
